Read-outs that look alike come from different tables or passages of the source.
Legend:
[1] = target: T1, AKT1 WT (Homo sapiens, UniProt P31749); assay: Live cell AKT1 WT target engagement by NanoBRET competitive probe displacement in HEK293 cells; assay type: binding; conditions: 2 h at 37° C.
T1 construct: expressed in transfected cells; host or cells: HEK293

[2] = target: T2, AKT2 (Homo sapiens, UniProt P31751); assay: Live cell AKT2 target engagement by NanoBRET competitive probe displacement in HEK293 cells; assay type: binding; conditions: 2 h at 37° C., read-out: AKT2 IC50
T2 construct: expressed in transfected cells; host or cells: HEK293
T2 sequence (P31751 whole entry): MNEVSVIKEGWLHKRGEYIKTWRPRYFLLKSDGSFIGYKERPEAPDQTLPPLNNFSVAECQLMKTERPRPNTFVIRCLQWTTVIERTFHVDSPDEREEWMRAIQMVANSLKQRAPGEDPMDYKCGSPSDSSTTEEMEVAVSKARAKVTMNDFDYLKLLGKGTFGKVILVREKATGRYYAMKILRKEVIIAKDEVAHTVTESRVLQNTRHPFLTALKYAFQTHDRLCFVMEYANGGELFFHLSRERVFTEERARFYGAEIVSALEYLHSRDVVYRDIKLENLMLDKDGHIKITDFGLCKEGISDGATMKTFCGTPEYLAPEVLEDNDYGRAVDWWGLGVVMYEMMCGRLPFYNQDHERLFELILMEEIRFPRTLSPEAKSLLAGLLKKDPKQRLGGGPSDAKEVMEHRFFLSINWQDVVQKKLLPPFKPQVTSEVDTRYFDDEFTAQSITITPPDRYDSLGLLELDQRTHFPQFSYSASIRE

[3] = NanoBRET live cell target engagement, HEK293 cells, read-out: AKT1 WT IC50
[4] = NanoBRET live cell target engagement, HEK293 cells
[5] = NanoBRET competitive probe displacement, live HEK293 cells, read-out: AKT1 WT IC50
[6] = NanoBRET competitive probe displacement, live HEK293 cells

T1 sequence (P31749 whole entry): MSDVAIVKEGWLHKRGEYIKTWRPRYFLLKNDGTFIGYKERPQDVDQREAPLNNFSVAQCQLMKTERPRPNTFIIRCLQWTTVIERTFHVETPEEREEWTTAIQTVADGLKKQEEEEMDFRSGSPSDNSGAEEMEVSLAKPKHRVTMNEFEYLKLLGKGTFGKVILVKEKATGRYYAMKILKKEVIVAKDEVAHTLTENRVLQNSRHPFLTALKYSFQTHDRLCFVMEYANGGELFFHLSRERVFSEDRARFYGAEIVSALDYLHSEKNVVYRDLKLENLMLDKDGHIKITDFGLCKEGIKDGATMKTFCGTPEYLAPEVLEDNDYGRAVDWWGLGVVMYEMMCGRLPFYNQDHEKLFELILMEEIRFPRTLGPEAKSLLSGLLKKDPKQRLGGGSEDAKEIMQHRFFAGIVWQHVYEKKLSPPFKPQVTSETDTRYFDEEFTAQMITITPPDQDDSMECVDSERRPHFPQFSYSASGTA

SMILES	IC50 [1, 3] [nM]	IC50 [2, 4] [nM]	IC50 [1, 5] [nM]	IC50 [2, 6] [nM]	IC50 ([1]; AKT1 WT IC50 (nM), NanoBRET live cell target engagement, HEK293 cells) [nM]
Nc1ncccc1-c1nc2ccc(-n3cccn3)nc2n1-c1ccc2c(c1)CC[C@@H]2NC(=O)c1cnc2c(c1)CCC2(F)F [Compound 66]	8.95	15			
Nc1ncccc1-c1nc2ccc(-n3nccn3)nc2n1-c1ccc2c(c1)CC[C@@H]2NCc1ccc(C(F)F)nc1 [Compound 234]	168	4550			
CCc1ccc(C(=O)N[C@H]2CCc3cc(-n4c(-c5cccnc5N)nc5ccc(-n6cccn6)nc54)ccc32)cn1 [Compound 80]	8.65	28.4			
Cc1cn(C)nc1C(=O)N[C@H]1CCc2cc(-n3c(-c4cccnc4N)nc4ccc(-n5cccn5)nc43)ccc21 [Compound 172]	203	2390			
Nc1ncccc1-c1nc2ccc(-n3cccn3)nc2n1-c1ccc2c(c1)CC[C@@H]2NC(=O)c1cc(F)c(F)c(F)c1 [Compound 343]	16.6	240			
COc1ccn(-c2ccc3nc(-c4cccnc4N)n(-c4ccc5c(c4)CC[C@@H]5NC4[C@@H]5COC[C@H]4CN(C(=O)C4CC4)C5)c3n2)n1 (single isomer, unassigned) [Compound 523]			48.4	1740	
Nc1ncccc1-c1nc2ccc(-n3cccn3)nc2n1-c1ccc2c(c1)CC[C@@H]2NC(=O)c1cnc2ccnn2c1 [Compound 238]	9.1	57.7			
COc1cc(C(=O)N[C@H]2CCc3cc(-n4c(-c5cccnc5N)nc5ccc(-n6cccn6)nc54)ccc32)nn1C(F)F [Compound 324]	23.1	502			
Nc1ncccc1-c1nc2ccc(-n3cccn3)nc2n1-c1ccc2c(c1)CC[C@@H]2NCc1ccnc(OC(F)(F)F)c1 [Compound 305]	32.1	1160			
Nc1ncccc1-c1nc2ccc(-n3cccn3)nc2n1-c1ccc2c(c1)CC[C@@H]2n1nnc2ccccc21 [Compound 345]	51.6	752			
Nc1ncccc1-c1nc2ccc(-n3nccn3)nc2n1-c1ccc2c(c1)CC(F)[C@@H]2NC1CCN(C(=O)C2CC2)CC1 (some centres unmarked) [Compound 532]			177	> 10000	
CN(CCC1CC1)[C@H]1CCc2cc(-n3c(-c4cccnc4N)nc4ccc(-n5cccn5)nc43)ccc21 [Compound 458]			93.4	2800	
Nc1ncccc1-c1nc2ccc(-c3cnccn3)nc2n1-c1ccc2c(c1)CC[C@@H]2NC1CCN(C(=O)C2CC2)CC1 [Compound 556]			124	1330	
Nc1ncccc1-c1nc2ccc(-n3cccn3)nc2n1-c1ccc2c(c1)CC[C@@H]2NC1CCc2ccncc21 (single isomer, unassigned) [Example 495, (S*)—N—((S)-5-(2-(2-aminopyridin-3-yl)-5-(1H-pyrazol-1-yl)-3H-imidazo[4,5-b]pyridin-3-yl)-2,3-dihydro-1H-inden-1-yl)-6,7-dihydro-5H-cyclopenta[c]pyridin-7-amine]			9.4	197	
Cc1nnsc1C(=O)N[C@H]1CCc2cc(-n3c(-c4cccnc4N)nc4ccc(-n5cccn5)nc43)ccc21 [Compound 438]			25.3	795	
Nc1ncccc1-c1nc2ccc(-n3cccn3)nc2n1-c1ccc2c(c1)CC[C@@H]2NC(=O)c1cccnc1C1CC1 [Compound 103]	25.2	316			
Nc1ncccc1-c1nc2ccc(-n3cccn3)nc2n1-c1ccc2c(c1)CC[C@@H]2n1ccnn1 [Compound 188]	20	650			
Cc1cc(C(=O)N[C@H]2CCc3cc(-n4c(-c5cccnc5N)nc5ccc(-n6cccn6)nc54)ccc32)sn1 [Compound 375]	7.52	68.9			
Nc1ncccc1-c1nc2ccc(-n3cccn3)nc2n1-c1ccc2c(c1)CC[C@@H]2NC1CCc2ccncc21 (single isomer, unassigned) [Example 496, (R*)—N—((S)-5-(2-(2-aminopyridin-3-yl)-5-(1H-pyrazol-1-yl)-3H-imidazo[4,5-b]pyridin-3-yl)-2,3-dihydro-1H-inden-1-yl)-6,7-dihydro-5H-cyclopenta[c]pyridin-7-amine]			28.2	1070	
CN(C)c1ccn(-c2ccc3nc(-c4cccnc4N)n(-c4ccc5c(c4)CC[C@@H]5NC4CCN(c5ccn(C)n5)CC4)c3n2)n1 [Compound 589]			16.8	650	
Cc1ccc(C(=O)N[C@H]2CCc3cc(-n4c(-c5cccnc5N)nc5ccc(-n6ncnc6C6CC6)nc54)ccc32)cn1 [Compound 420]			336	3100	
O=C(C1CC1)N1CCC(N[C@@H]2c3ccc(-n4c(-c5ccccc5F)nc5ccc(-n6ccc(N7CCOCC7)n6)nc54)cc3CC2F)CC1 (some centres unmarked) [Compound 572]			16.1	945	
Nc1ncccc1-c1nc2ccc(-n3cccn3)nc2n1-c1ccc2c(c1)CC[C@@H]2n1cc(C2CCO2)nn1 (some centres unmarked) [Compound 353]	25	1270			

SMILES	IC50 [1, 3] [nM]	IC50 [2, 4] [nM]	IC50 [1, 5] [nM]	IC50 [2, 6] [nM]	IC50 ([1]; AKT1 WT IC50 (nM), NanoBRET live cell target engagement, HEK293 cells) [nM]
Nc1ncccc1-c1nc2ccc(-n3cccn3)nc2n1-c1ccc2c(c1)CC[C@@H]2N1CCCCC1 [Compound 342, (S)-3-(3-(1-(piperidin-1-yl)-2,3-dihydro-1H-inden-5-yl)-5-(1H-pyrazol-1-yl)-3H-imidazo[4,5-b]pyridin-2-yl)pyridin-2-amine]	43.9	979			
Cc1ccc(C(=O)N[C@H]2CCc3cc(-n4c(-c5ccccc5)nc5ccc(-c6ccn(C7CC7)n6)nc54)ccc32)cn1 [Compound 431, (S)—N-(5-(5-(1-cyclopropyl-1H-pyrazol-3-yl)-2-phenyl-3H-imidazo[4,5-b]pyridin-3-yl)-2,3-dihydro-1H-inden-1-yl)-6-methylnicotinamide]			16.7	900	
Cc1nc2ncccc2c(=O)n1[C@H]1CCc2cc(-n3c(-c4cccnc4N)nc4ccc(-n5cccn5)nc43)ccc21 [Compound 180]	91.8	1150			
COc1cccc(-c2ccc3nc(-c4cccnc4N)n(-c4ccc5c(c4)CC(F)[C@@H]5NC4CCN(C(=O)C5CC5)CC4)c3n2)n1 (some centres unmarked) [Compound 545]			20.8	730	
Nc1ncccc1-c1nc2ccc(-n3cccn3)nc2n1-c1ccc2c(c1)CC[C@@H]2NC(=O)c1cc2ncccn2n1 [Compound 176]	24.7	315			
Nc1ncccc1-c1nc2ccc(-n3cccn3)nc2n1-c1ccc2c(c1)CC[C@@H]2NC(=O)c1ccc(F)cc1 [Compound 310]	22.1	351			
Nc1ncccc1-c1nc2ccc(-n3ccc(OC(F)F)n3)nc2n1-c1ccc2c(c1)CC[C@@H]2NC(=O)c1cnc(C(F)F)s1 [Compound 534]			38.9	507	
Nc1ncccc1-c1nc2ccc(-n3cccn3)nc2n1-c1ccc2c(c1)CC[C@@H]2NC1CC2(C1)CN(c1ccccn1)C2 [Compound 448]			47.8	1760	
CN(C)C(=O)c1cc(C(=O)N[C@H]2CCc3cc(-n4c(-c5cccnc5N)nc5ccc(-n6cccn6)nc54)ccc32)ccc1O [Compound 414]			26.1	562	
N#Cc1cc(-n2ccc(F)n2)nc2c1nc(-c1cccnc1N)n2-c1ccc2c(c1)CC[C@@H]2NC(=O)c1ccc(C(F)F)nc1 [Compound 329]	14.7	143			
COc1cc(C(=O)N[C@H]2CCc3cc(-n4c(-c5cccnc5N)nc5ccc(-n6cccn6)nc54)ccc32)n(C)n1 [Compound 158]	13.5	124			
Nc1ncccc1-c1nc2ccc(C3CC3)nc2n1-c1ccc2c(c1)CC[C@@H]2NC(=O)c1ccc(C(F)F)nc1 [Compound 130]	46.4	2290			
CC(=O)N1CCC(N[C@H]2CCc3cc(-n4c(-c5cccnc5N)nc5ccc(-n6cccn6)nc54)ccc32)CC1 [Compound 109]	257	5830			
Nc1ncccc1-c1nc2ccc(-n3cccn3)nc2n1-c1ccc2c(c1)CC[C@@H]2NC(=O)c1ccc2nccn2n1 [Compound 236]	12.1	158			
Nc1ncccc1-c1nc2ccc(-n3cccn3)nc2n1-c1ccc2c(c1)CC[C@@H]2NC(=O)c1ccc(F)c(Cl)c1 [Compound 337]	8.65	82.2			
Cc1cc(C(=O)N[C@H]2CCc3cc(-n4c(-c5cccnc5N)nc5ccc(-n6cccn6)nc54)ccc32)cc(C)n1 [Compound 76]		39.4			6.86
Cc1ccc(C(=O)N[C@H]2CCc3cc(-n4c(-c5cccnc5N)nc5ccc(-c6ncn(C)n6)nc54)ccc32)cn1 [Compound 455, (S)—N-(5-(2-(2-aminopyridin-3-yl)-5-(1-methyl-1H-1,2,4-triazol-3-yl)-3H-imidazo[4,5-b]pyridin-3-yl)-2,3-dihydro-1H-inden-1-yl)-6-methylnicotinamide]			195	3020	
Nc1ncc(C(=O)N[C@H]2CCc3cc(-n4c(-c5cccnc5N)nc5ccc(-n6cccn6)nc54)ccc32)cc1F [Compound 298]	7.16	51.6			
COC1CN(c2ccn(-c3ccc4nc(-c5cccnc5N)n(-c5ccc6c(c5)CC(F)[C@@H]6NC5CCN(C(=O)C6CC6)CC5)c4n3)n2)C1 (some centres unmarked) [Compound 553]			7.04	344	
Cc1coc(-c2ccc3nc(-c4cccnc4N)n(-c4ccc5c(c4)CC[C@@H]5NC(=O)c4nccnc4C)c3n2)n1 [Compound 244]	221	> 10000			
Cc1ncc(C(=O)N[C@H]2CCc3cc(-n4c(-c5cccnc5N)nc5ccc(-n6cccn6)nc54)ccc32)cn1 [Compound 143]	24.9	138			
Cc1cnc(C)c(C(=O)N[C@H]2CCc3cc(-n4c(-c5cccnc5N)nc5ccc(-n6cccn6)nc54)ccc32)c1 [Compound 137]	21.5	174			
Nc1ncccc1-c1nc2ccc(-n3cccn3)nc2n1-c1ccc2c(c1)CC[C@@H]2NC(=O)c1cnc(C(F)F)nc1 [Compound 114]	9.15	102			

— US12624034B2, “Non-covalent modifiers of AKT1 and uses thereof” (Terremoto Biosciences, Inc., priority 2023, dated 2026)
